Numbering of substitutions follows the chain as printed.
How the values were obtained:
rat sGC = target: T1, rat sGC (Rattus norvegicus, UniProt P20595); experiment: primary cell-free rat sGC enzyme assay (cGMP formation); format: biochemical; details: data not shown
T1 sequence (P20595 1-619): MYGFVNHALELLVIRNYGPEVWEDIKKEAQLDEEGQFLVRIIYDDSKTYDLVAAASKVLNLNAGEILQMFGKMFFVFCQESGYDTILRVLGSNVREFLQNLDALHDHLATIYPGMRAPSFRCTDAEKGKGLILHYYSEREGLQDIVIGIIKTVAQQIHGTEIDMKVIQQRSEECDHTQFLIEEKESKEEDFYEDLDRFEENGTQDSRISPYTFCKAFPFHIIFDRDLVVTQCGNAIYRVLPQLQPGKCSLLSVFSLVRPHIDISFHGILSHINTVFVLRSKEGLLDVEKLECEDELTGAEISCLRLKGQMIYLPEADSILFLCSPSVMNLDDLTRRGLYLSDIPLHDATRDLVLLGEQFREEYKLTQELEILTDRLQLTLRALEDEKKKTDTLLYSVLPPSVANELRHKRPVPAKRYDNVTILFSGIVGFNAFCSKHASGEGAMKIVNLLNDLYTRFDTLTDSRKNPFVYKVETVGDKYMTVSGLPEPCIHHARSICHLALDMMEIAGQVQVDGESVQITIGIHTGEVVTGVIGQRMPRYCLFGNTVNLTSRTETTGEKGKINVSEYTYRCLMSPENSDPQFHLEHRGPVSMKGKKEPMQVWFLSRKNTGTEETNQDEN
T1 sequence (P19686 1-690 partner): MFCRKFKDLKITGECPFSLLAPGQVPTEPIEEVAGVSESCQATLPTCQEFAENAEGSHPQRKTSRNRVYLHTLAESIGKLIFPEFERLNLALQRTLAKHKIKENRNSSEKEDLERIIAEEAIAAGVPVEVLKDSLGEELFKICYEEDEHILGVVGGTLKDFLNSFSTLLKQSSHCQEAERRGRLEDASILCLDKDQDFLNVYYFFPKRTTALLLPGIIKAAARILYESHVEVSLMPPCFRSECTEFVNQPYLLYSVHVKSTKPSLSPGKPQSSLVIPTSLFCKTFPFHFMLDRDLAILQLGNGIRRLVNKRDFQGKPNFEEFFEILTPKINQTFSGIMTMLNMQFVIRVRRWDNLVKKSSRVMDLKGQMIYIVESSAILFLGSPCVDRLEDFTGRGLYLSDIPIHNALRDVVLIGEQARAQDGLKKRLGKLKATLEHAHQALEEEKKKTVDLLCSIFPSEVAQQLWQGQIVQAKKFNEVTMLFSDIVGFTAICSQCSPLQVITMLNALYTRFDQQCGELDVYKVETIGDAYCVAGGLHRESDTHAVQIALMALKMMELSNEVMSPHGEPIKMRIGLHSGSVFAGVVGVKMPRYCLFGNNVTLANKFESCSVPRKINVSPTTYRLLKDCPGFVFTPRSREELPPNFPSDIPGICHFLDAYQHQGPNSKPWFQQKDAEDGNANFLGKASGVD

human sGC = target: T2, human sGC (Homo sapiens, UniProt Q02153); experiment: primary cell-free human sGC enzyme assay (cGMP formation); format: biochemical; details: data not shown
T2 sequence (Q02153 1-619): T1 sequence (P20595 1-619) with S171N, D205E, K247N, A299T, N615K, E618D, N619D
T2 sequence (Q02108 1-690 partner): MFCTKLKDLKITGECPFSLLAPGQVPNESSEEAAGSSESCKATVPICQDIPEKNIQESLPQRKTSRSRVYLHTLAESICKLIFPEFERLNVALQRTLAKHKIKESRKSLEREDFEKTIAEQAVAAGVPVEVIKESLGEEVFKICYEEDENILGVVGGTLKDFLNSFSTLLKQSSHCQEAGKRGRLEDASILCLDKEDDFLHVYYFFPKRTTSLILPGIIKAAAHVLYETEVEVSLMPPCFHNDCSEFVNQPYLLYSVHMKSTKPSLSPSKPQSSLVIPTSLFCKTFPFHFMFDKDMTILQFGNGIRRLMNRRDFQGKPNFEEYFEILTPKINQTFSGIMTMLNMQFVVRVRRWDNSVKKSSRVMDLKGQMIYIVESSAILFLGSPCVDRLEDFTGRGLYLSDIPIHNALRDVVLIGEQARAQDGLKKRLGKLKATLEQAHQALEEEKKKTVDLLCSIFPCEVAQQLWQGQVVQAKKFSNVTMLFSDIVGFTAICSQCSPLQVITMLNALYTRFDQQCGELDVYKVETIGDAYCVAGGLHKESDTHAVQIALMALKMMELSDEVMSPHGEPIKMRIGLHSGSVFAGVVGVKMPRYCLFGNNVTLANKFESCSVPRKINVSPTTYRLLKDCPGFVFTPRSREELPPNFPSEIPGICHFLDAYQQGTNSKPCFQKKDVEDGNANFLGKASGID

[1] = system: all other proteins tested (human enzymes, ion channels, transporters, and G-protein-coupled receptors); experiment: in vitro selectivity profile: cell-based functional assays, other non-sGC proteins
Description: The secondary pharmacological profile (i.e., sGC-independent activity) of GSK2181236A was assessed in cell-based functional assays by characterizing the interaction between GSK2181236A and 38 distinct human enzymes, ion channels, transporters, and G-protein-coupled receptors including 5-HT (5-HT1B/2A/2C/3), 5-HT transporter (SERT), adenosine (A2a), adrenergic (α1B/2C, β2), Aurora B kinase, cycoloxygenase-2 (COX-2), CaV1.2, cytochrome P450 (CYP2C19, 2D6, and 3A4), dopamine (D2), dopamine transporter (DAT), gamma-aminobutyric acid (GABAA), glycogen synthase kinase-3 (GSK3β) histamine (H1), KV1.5, KV7.1, KV11.1, lymphocyte-specific protein tyrosine kinase (LCK), L-monoamine oxidase (MAO-B) muscarinic (M1/2), NaV1.5, nicotinic (α1 nAChR), noradrenaline transporter (NET), opioid (κ, μ), organic anion transporting polypeptide C (OATP1B1), phosphodiesterase 5 (PDE5), phosphatidylinositol 3-kinase (PI3Kγ), pregnane X receptor (PXR), tachykinin (NK1), and vasopressin (V1a).

Q: What does the source list for `Cc1cc(-c2ccc(OC(F)(F)F)cc2)ccc1COc1ccccc1-c1cccc(-n2ncc(C(=O)O)c2C(F)(F)F)n1` [GSK2181236A, 1-(6-{2-[({3-methyl-4′-[(trifluoromethyl)oxy]-4-biphenylyl}methyl)oxy]phenyl}-2-pyridinyl)-5-(trifluoromethyl)-1H-pyrazole-4-carboxylic acid]?
A: EC50 (rat sGC): 27 nM; EC50 (human sGC): 25 nM; Interactions (EC50s or IC50s) at all other proteins tested [1]: ≥ 2500 nM; interaction with sGC more potent than any other non-sGC protein tested ([1]; cell-based assays): at least 23 fold; selectivity for sGC over all other tested proteins ([1]; vs P-VASP EC50 12.7 nM): ≥ 197 fold

Reference: publication PMC3389674, “Comparison of Soluble Guanylate Cyclase Stimulators and Activators in Models of Cardiovascular Disease Associated with Oxidative Stress” (Frontiers in Pharmacology, 2012)
